The assay has as its system sickled blood cells (SS blood erythrocytes). Nature of the assay: In vitro anti-sickling activity, Emmel test on SS blood. Format: cell-based. Conditions: for Emmel Test Result: 2% sodium metabisulphite, 2 hours anaerobic, compounds diluted in NaCl 0.9%. The procedure: Blood samples were collected from “Centre de Medecine Mixte et d'Anémie SS” located in Kinshasa, Democratic Republic of Congo (DRC). The blood samples were first characterised by Hb electrophoresis on cellulose acetate gel, in order to confirm their SS nature, as previously reported by Mpiana et al., 2007^6. Confirmed SS blood samples were refrigerated at ˜4° C., and used for Emmel test.
A drop of physiological solution was put on a glass slide and a drop of SS blood was added on the physiological solution. One drop of 2% sodium metabisulphite solution was added on the slide glass which was hermetically covered using a cover glass with melted paraffin wax and kept covered for 2 hours in order to accelerate the sickling of the blood. After 2 hours in anaerobic conditions, the blood sample became deoxygenated and adopted sickle shape. Assay was observed under an optical microscope and the number of observed erythrocytes was determined using Thomas' cell (Courtejoie, J. and Hartaing, I, 1992)^7.
SS blood samples were contacted at different concentrations with diluted samples of the compounds (8), (9), (10), and (11) using physiological solution (NaCl 0.9%) as dilution solvent, according to Emmel's test procedure as reported above and optical measurements were taken.
Pictures were obtained with an optical microscope (motic). In order to convert the photonic micrograph image into a digital image, a Canon digital camera (Zoom X6) was used to digitize micrographs using Motic Images 200 version 1.3 software, on Windows XP. Thomas' cell was used to observe the number of erythrocytes. The results of the in vitro anti-sickling activity of betulinic acid (8), 3-acetoxybetulinic acid (11), oleanolic acid (9) and maslinic acid (10) are shown in Table 1.

As for `C=C(C)[C@@H]1CC[C@]2(C(=O)O)CC[C@]3(C)[C@H](CC[C@@H]4[C@@]5(C)CC[C@H](OC(C)=O)C(C)(C)[C@@H]5CC[C@]43C)[C@@H]12` [DS/10/C/Ab, 3-acetoxybetulinic acid], the “Emmel Test Result” value is listed as “+++ (+++ = >70% normalisation of sickled blood cells.)”. For `CC1(C)CC[C@]2(C(=O)O)CC[C@]3(C)C(=CC[C@@H]4[C@@]5(C)CC[C@H](O)C(C)(C)[C@@H]5CC[C@]43C)[C@@H]2C1` [DS/FS/1, Oleanolic acid], the “Emmel Test Result” value was “+ (+ = 10 to 50% normalisation of sickled blood cells.)”. Besides, for the setting “Emmel test, in vitro”, the “normalisation of sickled blood cells” value is recorded as 10-50%. For `CC1(C)CC[C@]2(C(=O)O)CC[C@]3(C)C(=CC[C@@H]4[C@@]5(C)C[C@@H](O)[C@H](O)C(C)(C)[C@@H]5CC[C@]43C)[C@@H]2C1` [DS/FS/2, Maslinic acid], the “Emmel Test Result” value is given as “+++ (+++ = >70% normalisation of sickled blood cells.)”. Take `C=C(C)[C@@H]1CC[C@]2(C(=O)O)CC[C@]3(C)[C@H](CC[C@@H]4[C@@]5(C)CC[C@H](O)C(C)(C)[C@@H]5CC[C@]43C)[C@@H]12` [DS/10/C/A, Betulinic acid]: the “Emmel Test Result” value was “+++ (+++ = >70% normalisation of sickled blood cells.)”.

(Values after patent US8685469B2, “In vitro anti-sickling activity of betulinic acid, oleanolic acid and their derivatives” (University of KwaZulu-Natal, priority 2009, dated 2014).)
